Experimental data reported in patent publication US8748566B2, “Pharmacologically active antiviral peptides and methods of use” (priority 2000, dated 2014).

Columns and labels:
Assay type in all cases: cell-based
hrR3 [1] = experiment: Virucidal assay; details: overnight dialysis against serum-containing medium
Experimental: […] The treated virus was diluted 200-fold with serum-supplemented DMEM and assayed for infectivity approximately 1 hour later in microtiter wells seeded with Vero cells (3.5×10^4 cells/well) 1 d earlier. Forty or 100 microliter volumes of diluted virus were adsorbed for 1 or 2 h at 37° C. and lacZ^+ cells were scored 8 hours later. In some experiments, aliquots of diluted virus were first dialyzed (Spectra/Por; MWCO 12-14,000) overnight at 4° C. against a 60-fold excess volume of Hepes-buffered serum-supplemented DMEM or forced by syringe through 0.22 μm membranes (Millex-GV; Millipore) before the remaining infectious virus was assayed.

HSV-1 KOS [2] = experiment: Plaque reduction assay, HSV-1 KOS infection of Vero cell cultures
Experimental: The procedures for growing Vero cells and preparing high titer stocks of HSV-1 KOS as described in (Grau et al., Invest. Ophthal. and Vis. Sci. 30: 2474 (1989)) were utilized. Vero cells were maintained in carbonate-buffered DMEM supplemented with 5% calf serum and 5% fetal bovine serum (regular medium). For some studies, cells were switched to serum-free DMEM buffered with 25 mM Hepes (pH 7.4) and allowed to adapt to that medium for 30 min prior to experimental treatments. Vero cells were seeded into wells (0.28 cm^2) of microtiter plates either at 3.5×10^4 cells/well for use 1 day later (8×10^4 cells/well) or at 1×10^4 cells/well for use 3 days later (2×10^5 cells/well).
Confluent Vero cell cultures in microtiter plates were infected for 1 hour at 37° C. in 40 μl of medium. Except where indicated, peptide treatments in 40 μl of medium lasted from 1 hour before through 1 hour after infection. At the end of the adsorption period, the cultures were re-fed with 100 μl of regular medium. Plaque formation was scored 2 days later and the number of plaques scored per well was normalized to the number counted in the absence of peptide. Using an ocular micrometer, plaque size ([…]) was determined by measuring the largest plaque diameter (L) and the diameter at a 90° angle to that (S). The size of each of the first 40 scored plaques was measured except when a plaque included less than 10 rounded cells or touched the side of the well.

HSV-1 KOS [3] = experiment: Yield reduction assay (virus production in infected Vero cells); details: added one hour prior to infection; EB statement for concentrations exceeding 10 μM (FIG. 3)
Experimental: Three days post-infection, Vero cell cultures in microtiter plates were frozen (−80° C.) and thawed (37° C.) three times. Cells were suspended by repeated pipetting and microtiter plates were spun for 10 min at 700×g in a Beckman model TJ-6 tabletop centrifuge. The virus-containing supernates were serially diluted in regular medium and titered on Vero cells. Plaques were counted after staining the monolayers with crystal violet as taught by Grau et al., Invest. Ophthalmol. Vis. Sci. 30:2474 (1989).
Vero cell cultures as prepared in Example 1 were infected with HSV-1 and assayed for virus production as described in Example 1. The antiviral activity of an antiviral peptide according to the present invention EB (SEQ ID NO:1) was compared to the antiviral activity of the current HSV antiviral nucleoside standard, acyclovir. The two peptides were added to the Vero cells one hour prior to infection with HSV.

Vero cells = experiment: Trypan-blue exclusion assay (cytotoxicity)
Experimental: Uninfected Vero cells in serum-free or serum-supplemented DMEM where treated for 1 hour at 37° C. with antiviral peptide SEQ ID NO:1 or control peptide EBX (SEQ ID NO:17), rinsed with PBS, stained for […] at 23° C. with 0.4% trypan-blue in PBS, rinsed again with PBS and air dried.

hrR3 [4] = experiment: LacZ+ virus (hrR3) entry assay
Experimental: Confluent Vero cell cultures in 96-well microtiter plates were switched to Hepes-buffered serum-free DMEM, cooled on ice to 4° C. for 30 min, and infected with hrR3 for 1 hour at 4° C. in 40 μl of medium. Unattached virus was removed by rinsing with ice-cold medium. Treatments with antiviral peptide SEQ ID NO:1, referred to as EB, or a control peptide which comprised the RRKK tetra-peptide (SEQ ID NO:16) attached to a scrambled version of the membrane transiting peptide RRKKLAALPLVLAAPLAVLA (SEQ ID NO:17) (referred to as EBX), or mock-treatments with peptide-free medium were carried out in serum-free DMEM as indicated. Virus entry was initiated by transferring cultures to 37° C. To inactivate any remaining extracellular virus, cultures were rinsed with PBS and exposed to low pH citrate buffer (40 mM citric acid, 10 mM KCl, 135 mM NaCl, pH 3.0, according to Highlander et al., J. Virol. 61:3356 (1987), for 1 min at 23° C. The citrate was rinsed off with PBS and cultures were maintained in serum-supplemented DMEM until they were fixed with 0.5% gluteraldehyde in 5×PBS for 30 min at 23° C., stained for β-galactosidase activity for 1 hour or overnight at 23° C. with X-gal (Fisher Biotech; BP 1615-1) in 1×PBS containing […], 1.3 mM K4Fe(CN)6, and 1.3 mM K3Fe(CN)6, and scored for the presence of blue lacZ^+ cells.
In these studies, the hrR3 virus was pre-adsorbed to cells for 1 hour at 4° C. before ice cold 25 μM EB or EBX were added in serum-free DMEM. After an additional 1 hour at 4° C., cultures were shifted to 37° C. to initiate virus entry. At 15 min intervals following the temperature shift, any virus remaining outside the cells was inactivated by washing the cultures with low pH citrate buffer. Cultures were then rinsed and returned to peptide-free serum-supplemented DMEM until they were fixed and stained for f-galactosidase 8 hours after the temperature shift.
This conclusion is strengthened by the finding that the EB-sensitive phase of infection with pre-adsorbed virus clearly precedes expression of lacZ genes in hrR3 infected cells (FIG. 7A). Again, hrR3 was pre-adsorbed to cells for 1 hour at 4° C., unattached virus was rinsed off, and cells were kept for an additional hour at 4° C. Cultures were then transferred to 23° C. for 30 min before they were switched to 37° C. The more gradual change to 37° C. allowed cell layers to remain intact through subsequent frequent medium changes. Immediately following viral adsorption, cells were treated with 50 μM EB for 1 hour periods at consecutive 1 hour intervals. Between 1 and 4 hours post-infection, virus entry was inhibited by 70-80%. […] Parallel cultures were immediately fixed after mock-treatments and stained with X-gal. In these cultures, blue (lacZ^+) cells first appeared 7 hours post-infection and their number increased nearly linearly for the next 3 hours (FIG. 7A, (∘)). By 7 hours post-infection, EB ceased to be inhibitory.

Which “reversibility of virion inactivation” value (hrR3 [1]) does the source give for H-RRKKAAVALLPAVLLALLAP-OH [EB] here?
The value was “irreversibly inactivated”.

What about the “effect on plaque size” value (HSV-1 KOS [2]; EB present before and during adsorption) of the same substance?
Its value is “no effect on plaque size”.

What about the “fold lower concentration blocking infections compared to control peptide EBX” value (HSV-1 KOS [2]; absence of serum (FIG. 1B)) of the same substance?
The value was 100 fold.

What about the “effect on plaque formation” value (HSV-1 KOS [2]; peptide present during infection of Vero cells with HSV-1 KOS) of the same substance?
Its value is “blocking plaque formation”.

And the “fold lower concentration blocking infections compared to control peptide EBX” value (HSV-1 KOS [2]; presence of serum (FIG. 1A))?
The value was 10 fold.

What about the “combined mean plaque size” value (HSV-1 KOS [2]; transient treatments with 6 and 12 μM EB (up to 1 hour post-infection)) of the same substance?
Its value is 68,000±11,000 μm^2.

What about the “antiviral activity, EB compared with acyclovir” value (HSV-1 KOS [3]) of the same substance?
The value was “greatest antiviral activity”.

And the “cytotoxic concentrations relative to antiviral concentrations” value (Vero cells)?
The value was 100 fold.

And the “inhibition of virus entry” value (hrR3 [4]; 50 μM EB for 1 hour periods, between 1 and 4 hours post-infection (FIG. 7A))?
Its value is 70-80%.

What about the “effect on development of lacZ+ cells” value (hrR3 [4]; peptide added immediately after each citrate treatment (FIG. 6B)) of the same substance?
The value was “no longer had any effect”.
